Measured values published in patent US9809843B1, “High throughput measurement of DNA base lesion repair capacity” (THE FLORIDA INTERNATIONAL UNIVERSITY BOARD OF TRUSTEES, priority 2016, dated 2017).

tested on: prostate cancer (LNCaP) cell extracts; test: BER capacity of prostate cancer cell extracts (fluorescence assay); assay type: biochemical, human; conditions: 25 μg cell extracts, inhibitor 200 μM, 37° C. 30 minutes; FIG. 7
Procedure: Cell pellets were re-suspended in lysis buffer that contained 10 mM Tris-HCl, pH 7.8, 200 mM KCl, 1 mM EDTA, 20% glycerol, 0.1% Nonidet P-40, 1 mM DTT with proteinase inhibitors (Roche Diagnostics Corporation, Indianapolis, Ind.). Cell suspension was subsequently subjected to rotation at 4° C. for 2 hours. After rotation, cell lysates were centrifuged at 14,000 rpm at 4° C. for 30 minutes to remove cell debris. The supernatant was recovered and further dialyzed into BER reaction buffer containing 50 mM Tris-HCl, pH 7.5, 50 mM KCl, 0.1 mM EDTA, 0.1 mg/ml bovine serum albumin, and 0.01% Nonidet P-40. Protein concentration of cell lysates was determined by Bradford assay. Cell lysates were aliquoted and stored at −80° C. for subsequent assay.
Substrates (25 nM) were pre-incubated with 25 nM purified APE1 at 37° C. for 15 minutes, and completely converted into ssDNA break intermediates for subsequent BER reactions. In vitro BER of a THF base lesion was performed by incubating APE1 precut substrate with 25 μg cell extracts in 10 μl-reaction mixtures that contained BER reaction buffer with 5 mM Mg^2+, 50 μM dNTP and 2 mM ATP in the absence or presence of inhibitors. Reaction mixtures were assembled on ice and incubated at 37° C. for 30 minutes.
10 μl-reaction mixtures were then transferred to […] black plates (Thermo Fisher Scientific, Pittsburgh, Pa.) and subjected to fluorescence reading. Each substrates/lysate/inhibitor combination was run in triplicate.
[…] plates were read at an excitation wavelength of 485±20 nm and an emission wavelength of 528±20 nm on a Synergy HTX Plate Reader (Bio-Tek, Winooski, Vt.). Data were exported to Excel for statistical analysis.
The fluorescence reading of each well needs to be abstracted by the reading from the well with 10 μl-BER reaction buffer alone before further data analysis. Normalized fluorescence data were averaged and plotted as “Average±Standard Deviation.” […]

Structure (SMILES) | effects on reducing BER capacity of prostate cancer (LNCaP) cell extracts
NC1=NC(=O)N(C2CC(O)C(COP(=O)(O)O)O2)C(I)C1 (stereo not drawn) [NSC-124854] | not significant
Cc1cc(S(=O)(=O)Nc2n[nH]c(Nc3ccc(Cl)cc3)n2)c(S)cc1Cl [NSC-666715] | not significant
Cc1cc(S(=O)(=O)Nc2n[nH]c(Nc3ccc4ccccc4c3)n2)c(S)cc1Cl [NSC-666719] | not significant

molecular target: Exo III (Escherichia coli, UniProt P09030); test: not given; conditions: 0.5 U EXO III
Sequence (P09030 whole entry): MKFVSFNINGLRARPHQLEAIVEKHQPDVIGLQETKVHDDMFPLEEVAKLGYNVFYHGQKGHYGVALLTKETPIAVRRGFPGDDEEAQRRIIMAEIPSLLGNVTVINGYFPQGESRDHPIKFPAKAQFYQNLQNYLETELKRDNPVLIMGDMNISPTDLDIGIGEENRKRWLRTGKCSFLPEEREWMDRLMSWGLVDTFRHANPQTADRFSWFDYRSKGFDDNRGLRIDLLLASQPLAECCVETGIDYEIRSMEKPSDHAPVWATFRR
Procedure: 0.5 U EXO III was added into each reaction and incubated at 37° C. for 10 minutes to release fluorescence signal. Reaction mixtures were incubated at 50° C. for additional 30 min to ensure the complete release of 6-FAM conjugated unrepaired DNA substrates. EDTA was added into each reaction at a final concentration of 50 mM to terminate the reactions. Fluorescence readings were measured at excitation wavelength of 485±20 nm and emission wavelength of 528±20 nm on Synergy HTX Plate Reader. Data were exported for statistical analysis. The fluorescence reading of each well were adjusted by subtracting background reading signals from a control containing substrate […]. Normalized fluorescence data were averaged and plotted with corresponding statistical errors.

Structure (SMILES) | inhibitory effects on Exo III activity
NC1=NC(=O)N(C2CC(O)C(COP(=O)(O)O)O2)C(I)C1 (stereo not drawn) [NSC-124854] | do not exhibit any inhibitory effects
Cc1cc(S(=O)(=O)Nc2n[nH]c(Nc3ccc(Cl)cc3)n2)c(S)cc1Cl [NSC-666715] | do not exhibit any inhibitory effects
Cc1cc(S(=O)(=O)Nc2n[nH]c(Nc3ccc4ccccc4c3)n2)c(S)cc1Cl [NSC-666719] | do not exhibit any inhibitory effects
